Assay results: EP2826473A1, “NOVEL USE OF PATCHOULOL” (Chengdu Huasun Group Inc., Ltd., priority 2012, dated 2013)
In brackets after ≈: the same amount, converted by molar mass.

Columns and labels:
[1] = tested on: Staphylococcus epidermidis MSSE; test: in vitro bacteriostatic activity, agar dilution MIC; type: cell-based; details: Staphylococcus epidermidis
[2] = tested on: Staphylococcus aureus MSSA; test: as above; type: cell-based
Staphylococcus aureus = test: in vitro bacteriostatic activity, agar dilution MIC, quality control strains; type: cell-based; details: Staphylococcus aureus, ATCC29213
[3] = tested on: Methicillin-resistant Staphylococcus aureus ATCC 43300; test: in vivo protection of model mice infected with methicillin-resistant Staphylococcus aureus; parameters: species or system KM mice; details: 4×10^5 units/kg, intraperitoneal injection once a day, within 14 days
Description: Tested strains' virulence assay: Methicillin-resistant Staphylococcus aureus was cultured in incubator at 37°C to reach exponential phase of growth, and then diluted with normal saline to obtain different gradient concentrations of bacterial liquid. Different concentrations of bacterial liquid were taken and mixed with equivalent 10% gastric mucin. Bacterial liquid was administrated to mice at 0.5 ml/20 g by intraperitoneal injection, and 5% gastric mucin was used as control. Under a premise of no control mice death, the death rate of mice within 14 days was recorded, and the minimum bacterial volumes leading to death of whole mice were measured, i.e. the minimum lethal dose (MLD) of bacterial liquid.
Pretesting of effective dose in vivo: Infection model mice infected by Methicillin-resistant Staphylococcus aureus were randomly divided into a few of groups (four mice per group), and a graded dose of each bacterial liquid was separately administrated to mice in each test group at one time per day. Moreover, administration of test drug was done one day ahead of schedule, and toxic substances were not eliminated until 0.5 h after administration on the second day. The death status of mice within 14 days was observed, to determine the dosage used in the formal experiment.
KM mice (grade SPF), half male and half female, weighing 18-22 g were randomly divided into […] groups with ten mice for each group, i.e. the group receiving vancomycin hydrochloride for injection; the groups receiving high, medium, and low doses of patchoulol; blank group; model group; and control group receiving gastric mucin. All of the mice were administrated by intraperitoneal injection once a day. The mice were administrated one day in advance and then attacked after 0.5h of administration on the second day, i.e. intraperitoneally injected with methicillin-resistant Staphylococcus aureus liquid containing 5% gastric mucin. Amongst, mice in the model group were given normal saline instead of test drug; mice in the blank group were not given drugs and attacked; mice in the gastric mucin control group were not given test drug, but only injected with 5% gastric mucin without bacteria.
The death status of mice within 14 days after injection of bacteria was observed, and its survival rate was recorded.

[4] = tested on: Staphylococcus epidermidis ATCC 12228; test: in vitro bacteriostatic activity, agar dilution MIC, quality control strain; type: cell-based; details: Staphylococcus epidermidis, ATCC12228
[5] = tested on: Staphylococcus epidermidis MRSE; test: in vitro bacteriostatic activity, agar dilution MIC; type: cell-based
Enterococcus faecium = test: as above; type: cell-based; details: Enterococcus faecium
[6] = tested on: Staphylococcus aureus MRSA; test: as above; type: cell-based
Enterococcus faecalis = test: as above; type: cell-based; details: Enterococcus faecalis

`CN[C@H](CC(C)C)C(=O)N[C@H]1C(=O)N[C@@H](CC(N)=O)C(=O)N[C@H]2C(=O)N[C@H]3C(=O)N[C@H](C(=O)N[C@H](C(=O)O)c4cc(O)cc(O)c4-c4cc3ccc4O)[C@H](O)c3ccc(c(Cl)c3)Oc3cc2cc(c3O[C@@H]2O[C@H](CO)[C@@H](O)[C@H](O)[C@H]2O[C@H]2C[C@](C)(N)[C@H](O)[C@H](C)O2)Oc2ccc(cc2Cl)[C@H]1O` [vancomycin] showed an MIC ([1]; Staphylococcus epidermidis MSSE 12-11) of 1 µg/mL (≈ 0.69 µM), an MIC ([1]; Staphylococcus epidermidis MSSE 12-12) of 2 µg/mL (≈ 1.38 µM) and an MIC ([1]; Staphylococcus epidermidis MSSE 12-13) of 1 µg/mL (≈ 0.69 µM). For the same compound, the MIC ([1]; Staphylococcus epidermidis MSSE 12-14) was 2 µg/mL (≈ 1.38 µM), the MIC ([1]; Staphylococcus epidermidis MSSE 12-15) was 2 µg/mL (≈ 1.38 µM) and the MIC ([1]; Staphylococcus epidermidis MSSE 12-16) was 0.5 µg/mL (≈ 0.345 µM). The MIC ([1]; Staphylococcus epidermidis MSSE 12-17) was 0.5 µg/mL (≈ 0.345 µM), the MIC ([1]; Staphylococcus epidermidis MSSE 12-18) was 0.25 µg/mL (≈ 0.173 µM) and the MIC ([1]; Staphylococcus epidermidis MSSE 12-19) was 1 µg/mL (≈ 0.69 µM). For the same compound, the MIC ([1]; Staphylococcus epidermidis MSSE 12-20) was 1 µg/mL (≈ 0.69 µM), the MIC ([2]; Staphylococcus aureus MSSA 12-11) was 1 µg/mL (≈ 0.69 µM) and the MIC ([2]; Staphylococcus aureus MSSA 12-13) was 1 µg/mL (≈ 0.69 µM). It also gave an MIC ([2]; Staphylococcus aureus MSSA 12-14) of 1 µg/mL (≈ 0.69 µM), an MIC ([2]; Staphylococcus aureus MSSA 12-15) of 1 µg/mL (≈ 0.69 µM) and an MIC ([2]; Staphylococcus aureus MSSA 12-16) of 1 µg/mL (≈ 0.69 µM). It also gave an MIC ([2]; Staphylococcus aureus MSSA 12-17) of 1 µg/mL (≈ 0.69 µM), an MIC ([2]; Staphylococcus aureus MSSA 12-18) of 1 µg/mL (≈ 0.69 µM) and an MIC ([2]; Staphylococcus aureus MSSA 12-19) of 1 µg/mL (≈ 0.69 µM). It also gave an MIC ([2]; Staphylococcus aureus MSSA 12-21) of 1 µg/mL (≈ 0.69 µM), an MIC ([2]; Staphylococcus aureus, MSSA) of 1 µg/mL (≈ 0.69 µM) and an MIC (Staphylococcus aureus) of 0.5 µg/mL (≈ 0.345 µM). The Survival number ([3]; 10 animals) was 10, the “Survial rate (%)” value [3] was 100% and the MIC [4] was 1 µg/mL (≈ 0.69 µM). It also gave an MIC ([5]; Staphylococcus epidermidis MRSE 12-11) of 8 µg/mL (≈ 5.52 µM), an MIC ([5]; Staphylococcus epidermidis MRSE 12-12) of 0.5 µg/mL (≈ 0.345 µM) and an MIC ([5]; Staphylococcus epidermidis MRSE 12-15) of 2 µg/mL (≈ 1.38 µM). For the same compound, the MIC ([5]; Staphylococcus epidermidis MRSE 12-16) was 2 µg/mL (≈ 1.38 µM), the MIC ([5]; Staphylococcus epidermidis MRSE 12-17) was 2 µg/mL (≈ 1.38 µM) and the MIC ([5]; Staphylococcus epidermidis MRSE 12-18) was 2 µg/mL (≈ 1.38 µM). It also gave an MIC ([5]; Staphylococcus epidermidis MRSE 12-19) of 2 µg/mL (≈ 1.38 µM), an MIC ([5]; Staphylococcus epidermidis MRSE 12-20) of 2 µg/mL (≈ 1.38 µM) and an MIC ([5]; Staphylococcus epidermidis MRSE 12-21) of 2 µg/mL (≈ 1.38 µM). For the same compound, the MIC ([5]; Staphylococcus epidermidis MRSE 12-22) was 1 µg/mL (≈ 0.69 µM), the MIC (Enterococcus faecium; ATCC33186, Enterococcus faecium ATCC 33186) was 1 µg/mL (≈ 0.69 µM) and the MIC (Enterococcus faecium; Enterococcus faecium 12-7) was 0.5 µg/mL (≈ 0.345 µM). It also gave an MIC (Enterococcus faecium; Enterococcus faecium 12-8) of 0.5 µg/mL (≈ 0.345 µM), an MIC (Enterococcus faecium; Enterococcus faecium 12-9) of 1 µg/mL (≈ 0.69 µM) and an MIC (Enterococcus faecium; Enterococcus faecium 12-10) of 4 µg/mL (≈ 2.76 µM). It also gave an MIC (Enterococcus faecium; Enterococcus faecium 12-11) of 0.5 µg/mL (≈ 0.345 µM), an MIC (Enterococcus faecium; Enterococcus faecium 12-12) of 1 µg/mL (≈ 0.69 µM) and an MIC (Enterococcus faecium; Enterococcus faecium 12-13) of 4 µg/mL (≈ 2.76 µM). It also gave an MIC (Enterococcus faecium; Enterococcus faecium 12-14) of 0.5 µg/mL (≈ 0.345 µM), an MIC (Enterococcus faecium; Enterococcus faecium 12-15) of 1 µg/mL (≈ 0.69 µM) and an MIC (Enterococcus faecium; Enterococcus faecium 12-16) of 1 µg/mL (≈ 0.69 µM). The MIC ([6]; ATCC 43300 / MRSA, Methicillin-resistant Staphylococcus aureus ATCC 43300) was 1 µg/mL (≈ 0.69 µM), the MIC ([6]; MRSA, Staphylococcus aureus MRSA 12-11) was 2 µg/mL (≈ 1.38 µM) and the MIC ([6]; MRSA, Staphylococcus aureus MRSA 12-12) was 1 µg/mL (≈ 0.69 µM). It also gave an MIC ([6]; MRSA, Staphylococcus aureus MRSA 12-13) of 1 µg/mL (≈ 0.69 µM), an MIC ([6]; MRSA, Staphylococcus aureus MRSA 12-14) of 1 µg/mL (≈ 0.69 µM) and an MIC ([6]; MRSA, Staphylococcus aureus MRSA 12-15) of 1 µg/mL (≈ 0.69 µM). It also gave an MIC ([6]; MRSA, Staphylococcus aureus MRSA 12-16) of 2 µg/mL (≈ 1.38 µM), an MIC ([6]; MRSA, Staphylococcus aureus MRSA 12-17) of 1 µg/mL (≈ 0.69 µM) and an MIC ([6]; MRSA, Staphylococcus aureus MRSA 12-18) of 1 µg/mL (≈ 0.69 µM). For the same compound, the MIC ([6]; MRSA, Staphylococcus aureus MRSA 12-19) was 2 µg/mL (≈ 1.38 µM), the MIC ([6]; MRSA, Staphylococcus aureus MRSA 12-20) was 1 µg/mL (≈ 0.69 µM) and the MIC (Enterococcus faecalis; ATCC29212, Enterococcus faecalis ATCC 29212) was 2 µg/mL (≈ 1.38 µM). It also gave an MIC (Enterococcus faecalis; ATCC51299, Enterococcus faecalis (high endurance) ATCC 51299) of 2 µg/mL (≈ 1.38 µM), an MIC (Enterococcus faecalis; Enterococcus faecalis 12-11) greater than 128 µg/mL and an MIC (Enterococcus faecalis; Enterococcus faecalis 12-12) of 1 µg/mL (≈ 0.69 µM). It also gave an MIC (Enterococcus faecalis; Enterococcus faecalis 12-13) of 2 µg/mL (≈ 1.38 µM), an MIC (Enterococcus faecalis; Enterococcus faecalis 12-14) of 1 µg/mL (≈ 0.69 µM) and an MIC (Enterococcus faecalis; Enterococcus faecalis 12-17) of 2 µg/mL (≈ 1.38 µM). It also gave an MIC (Enterococcus faecalis; Enterococcus faecalis 12-18) of 1 µg/mL (≈ 0.69 µM), an MIC (Enterococcus faecalis; Enterococcus faecalis 12-19) of 2 µg/mL (≈ 1.38 µM) and an MIC (Enterococcus faecalis; Enterococcus faecalis 12-20) of 2 µg/mL (≈ 1.38 µM). The MIC (Enterococcus faecalis; Enterococcus faecalis 12-21) was 1 µg/mL (≈ 0.69 µM) and the MIC (Enterococcus faecalis; Enterococcus faecalis 12-22) was 1 µg/mL (≈ 0.69 µM).
